The numbers were not newly measured in patent publication US20140235496A1, “STIMULUS-ELICITED GENOMIC PROFILE MARKERS OF A NEURODEGENERATIVE CONDITION” (Blanchette Rockefeller Neurosciences Institute, priority 2011, published 2014), which cites them from elsewhere.

This data set relates to PKC. As to conditions: shown to be effective; see US 2010/0022645.

SMILES strings stand for the structures.

Take `CCC1CC1CC1CC1CC1CC1CC1CC1CC1CC1CC1CC1CCC(=O)O` (stereo not shown) [DHA-CP6]: the effective concentration is given as 10 nM.
